This assay deals with T1, human DHO-DH (Homo sapiens, UniProt Q02127).
T1 construct: The spleen tissue was chopped and then homogenized with a teflon glass homogenizer; from tissue; host or cells: human spleen, crude membrane preparation
Description: Dihydroorotate Dehydrogenase (DHO-DH) Assay: DCIP-linked inhibition of human spleen membrane DHO-DH. Format: biochemical. As to conditions: human spleen membranes, 90 min preincubation at 37° C., pH 8.0, 500 μM dihydroorotate, 100 μM coenzyme Q10, 200 μM DCIP, loss of absorbance at 650 nm. The text has this:
Human spleen membrane DHO-DH catalyzed conversion of dihydroorotate to orotate is accompanied by reduction of coenzyme Q10. Reoxidation of coenzyme Q10 is linked to reduction of dichlorophenolindophenol and is monitored as a loss of absorbance at 650 nm. The rate of loss in absorbance is a direct measurement of the rate of the DHO-DH enzyme catalyzed reaction.
Crude membrane preparations were made using a modification of a published differential centrifugation procedure. All procedures were carried out on ice or at a temperature of 4° C. using pre-cooled buffers and equipment.
The spleen tissue was chopped and then homogenized with a teflon glass homogenizer (about 10 passes at 250 rpm) in 10 volumes of a homogenization buffer (10 mM Tris-HCl containing 0.25M sucrose, 10 μg/ml soybean trypsin inhibitor, 2 μg/ml aprotinin, pepstatin A and leupeptin pH 7.4). The homogenate was centrifuged at ^~ 470 g for 10 minutes and the supernatant was saved. Pellets were resuspended in 4-6 volumes of homogenization buffer using 5 passes of the teflon glass homogenizer (250 rpm) and centrifuged for 10 minutes at ^~ 470 g. The supernatant was combined with that from the first centrifugation step (post nuclear fraction) and the pellets containing nuclei and tissue debris were discarded. The post nuclear supernatant was centrifuged at 125,000 g for 40 minutes. The pellets were resuspended in homogenization buffer (2 ml/g wet tissue) using about 10 passes of the teflon glass homogenizer. Aliquots of the preparation were stored at -80° C.
Membranes (0.33-0.5 mg protein) were incubated with 100 μM coenzyme Q10 in 50 mM Tris-HCl, 0.1% Triton X-100, 1 mM KCN pH 8.0. Following a 90 minute preincubation at 37° C., the reaction was initiated by addition of 500 μM of dihydroorotate and the reduction of DCIP (200 μM) was monitored by loss of absorbance at 650 nm using a 96-well plate reader at 37° C. Drug concentrations increased in half log unit or full log unit intervals with each concentration tested at least in triplicate.

Read-outs that look alike come from different tables or passages of the source.

T1 sequence (Q02127 whole entry): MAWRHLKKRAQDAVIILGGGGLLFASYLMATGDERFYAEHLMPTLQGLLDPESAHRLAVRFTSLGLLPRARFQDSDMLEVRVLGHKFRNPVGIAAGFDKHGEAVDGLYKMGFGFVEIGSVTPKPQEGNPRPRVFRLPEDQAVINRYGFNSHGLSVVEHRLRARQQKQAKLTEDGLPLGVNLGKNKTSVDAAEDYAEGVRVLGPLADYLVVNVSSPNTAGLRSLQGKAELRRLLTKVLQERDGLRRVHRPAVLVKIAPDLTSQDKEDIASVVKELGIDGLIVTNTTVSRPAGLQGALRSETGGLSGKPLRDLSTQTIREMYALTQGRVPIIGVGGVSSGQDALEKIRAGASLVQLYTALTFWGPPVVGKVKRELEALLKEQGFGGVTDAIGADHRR

On to `N#Cc1ccc(NC(=O)C(C#N)C(=O)C2CC2)cc1` (stereo not shown) [A], for which the IC50 (read-out: IC50) is 1950 to 2100 nM.

Regarding `CC=CC(=O)C(C#N)C(=O)Nc1ccc(C(F)(F)F)cc1` (stereo not shown) [C], half-maximal inhibition (IC50) required 79.4 nM.

Consider `N#CC(C(=O)Nc1ccc([S+]([O-])C(F)(F)F)cc1)=C(O)C1CC1` (stereo not shown) [Example 2, N-(4'-trifluoromethylsulfinyl-phenyl)-2-cyano-3-cyclopropyl-3-hydroxy-prop-2-enamide], for which the 50% inhibitory concentration (IC50) (read-out: IC50) amounted to 300 nM.

On to `C#CC(=O)C(C#N)C(=O)Nc1ccc(C(F)(F)F)cc1` (stereo not shown) [B], for which the IC50 (read-out: IC50) is > 100 nM.

The IC50 is the concentration that gives 50% inhibition.

For the origin of these results see patent US5693844A, “2-cyano-3-hydroxy-propenamides” (Roussel UCLAF, priority 1995, dated 1997).
